“Also recorded” adds a separate entry of the source.
Key:
[1] = target: T1, EphA2 (Mus musculus, UniProt Q03145); assay: Immunohistochemistry of TUBB3 and pEphA2 receptor in RGCs; assay type: cell-based; conditions: 500 nM, 4 days
T1 construct: endogenous in cells; host or cells: primary mouse retinal ganglion cells (p8-10 pups)

[2] = system: mouse RGC growth cones; assay: RGC growth cone collapse analysis; assay type: cell-based; conditions: 500 nM, 4 days, mouse RGC cultures
Description: One of the first signs of neuronal dysfunction is axonal growth cone collapse, and it is one of the mechanisms through which Eph-receptors exert their repulsive stimuli for axonal guidance. […] At the 48 h time point, cells were stimulated by the addition of 2 μg of pre-clustered recombinant mouse EfnA5-His (R&D Systems) for 1 hour. Following this stimulation, cells were fixed in 4% paraformaldehyde for 5 minutes, permeabilized with 0.05% Triton X-100, and blocked with 5% FBS for 1 h. Cells were then incubated in primary antibody against TUBB3 overnight at 4° C., washed, and incubated in AlexaFluor 488-conjugated secondary for 2 h at room temperature. After washing, cell cytoskeleton was counterstained with AlexaFluor 594-conjugated phalloidin for 30 min at 37° C. (ThermoFisher) and mounted with SlowFade Gold Anti-fade media with DAPI. Cells were then imaged using an EVOS FL Auto fluorescent microscope. Images were analyzed in ImageJ by a blinded investigator and a growth cone collapse was calculated manually.

[3] = system: Ephexin-1; assay: Western blot of phosphorylated Ephexin-1 in mRGCs; assay type: cell-based, mouse; conditions: 500 nM
Description: (§1) On day 4, cells were treated with pre-clustered recombinant mouse EfnA5-His ligand [(+) Control, using anti-His_Tag antibody for 30 minutes] for 2 hours. Cells were then lysed in RIPA buffer containing protease and phosphatase inhibitor cocktails and maintained on ice. Protein was quantified using a BCA assay, and 10 μg of total protein was run on a TGX stain-free Any kD gel (BioRad) and transferred using the trans-blot turbo system (BioRad). Following transfer and blocking in 5% nonfat milk for 1 h, blots were probed with antibodies against RhoA, phosphorylated Rac1, ARHGEF15, Ephexin-1, or beta-actin as an endogenous loading control overnight at 4° C. Blots were then washed 3×5 min in PBS-T and incubated in the appropriate HRP-conjugated secondary antibody for 2 h at room temperature. Blots were imaged using chemiluminescent ECL substrate (Pierce) on a BioRad ChemiDoc MP imaging system and software.

[4] = system: RGCs and visual function after optic neuropathy onset; assay: Ultrasonic shockwave optic nerve injury model (SI-TON): RGC survival, PERG, flash ERG; assay type: in vivo, mouse
Description: In this example, the effect of xEFN peptide administration on the visual function of mice in an animal model that more closely resembled the human manifestation and progression of visual dysfunction following the onset of optic neuropathy was assessed. […] Visual function was measured at 2 and 4 weeks post optic nerve injury in all groups using pattern electroretinogram (PERG) to measure RGC function, as well as flash electroretinogram (ERG) to assess rod and cone functionality.

[5] = target: T2, EphB2 (Mus musculus, UniProt P54763); assay: Western blot of EphB2 expression in isolated mouse RGCs; assay type: cell-based; conditions: 1 μM, 4 days
T2 construct: endogenous in cells; host or cells: primary mouse retinal ganglion cells
T2 sequence (P54763 19-986): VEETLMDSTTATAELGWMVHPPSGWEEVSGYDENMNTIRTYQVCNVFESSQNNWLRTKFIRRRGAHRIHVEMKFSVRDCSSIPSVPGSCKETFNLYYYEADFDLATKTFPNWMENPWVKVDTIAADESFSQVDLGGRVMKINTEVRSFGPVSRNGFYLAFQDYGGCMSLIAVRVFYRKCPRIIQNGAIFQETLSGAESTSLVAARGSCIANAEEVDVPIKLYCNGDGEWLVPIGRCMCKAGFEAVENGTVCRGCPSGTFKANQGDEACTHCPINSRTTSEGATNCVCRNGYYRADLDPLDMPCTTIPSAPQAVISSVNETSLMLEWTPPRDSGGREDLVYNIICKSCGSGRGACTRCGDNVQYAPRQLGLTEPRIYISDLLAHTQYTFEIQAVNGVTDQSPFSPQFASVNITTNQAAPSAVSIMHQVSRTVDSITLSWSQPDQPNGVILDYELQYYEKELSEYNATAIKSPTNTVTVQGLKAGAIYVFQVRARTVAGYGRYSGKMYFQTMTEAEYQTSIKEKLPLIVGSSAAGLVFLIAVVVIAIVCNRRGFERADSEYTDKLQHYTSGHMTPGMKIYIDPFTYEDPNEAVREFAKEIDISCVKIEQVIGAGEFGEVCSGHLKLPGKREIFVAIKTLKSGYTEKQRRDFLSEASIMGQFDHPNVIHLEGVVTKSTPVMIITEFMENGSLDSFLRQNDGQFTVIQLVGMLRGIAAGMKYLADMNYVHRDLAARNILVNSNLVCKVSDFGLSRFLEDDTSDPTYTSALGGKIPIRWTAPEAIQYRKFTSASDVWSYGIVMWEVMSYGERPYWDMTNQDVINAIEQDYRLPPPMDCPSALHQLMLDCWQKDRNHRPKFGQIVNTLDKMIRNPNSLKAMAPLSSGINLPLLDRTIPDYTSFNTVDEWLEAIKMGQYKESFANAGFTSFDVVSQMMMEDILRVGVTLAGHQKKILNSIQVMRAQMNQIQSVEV
Text: In order to assess the effect of xEFN peptide supplementation on Eph-receptor modulation, various in vitro assays were employed on isolated mouse RGCs. […] Similarly, xEFN_RBD1, and 3 inhibited the phosphorylation of Rac1 by pre-clustered ephirnA5 ligand stimulation. […] TUBB3 is a marker specific for neuronal microtubules and functions as a neuronal-specific marker.

[6] = system: ARHGEF15 (Ephexin-5); assay: Western blot of ARHGEF15 in mRGCs; assay type: cell-based, mouse; conditions: 500 nM
Description: as §1

T1 sequence (Q03145 26-977): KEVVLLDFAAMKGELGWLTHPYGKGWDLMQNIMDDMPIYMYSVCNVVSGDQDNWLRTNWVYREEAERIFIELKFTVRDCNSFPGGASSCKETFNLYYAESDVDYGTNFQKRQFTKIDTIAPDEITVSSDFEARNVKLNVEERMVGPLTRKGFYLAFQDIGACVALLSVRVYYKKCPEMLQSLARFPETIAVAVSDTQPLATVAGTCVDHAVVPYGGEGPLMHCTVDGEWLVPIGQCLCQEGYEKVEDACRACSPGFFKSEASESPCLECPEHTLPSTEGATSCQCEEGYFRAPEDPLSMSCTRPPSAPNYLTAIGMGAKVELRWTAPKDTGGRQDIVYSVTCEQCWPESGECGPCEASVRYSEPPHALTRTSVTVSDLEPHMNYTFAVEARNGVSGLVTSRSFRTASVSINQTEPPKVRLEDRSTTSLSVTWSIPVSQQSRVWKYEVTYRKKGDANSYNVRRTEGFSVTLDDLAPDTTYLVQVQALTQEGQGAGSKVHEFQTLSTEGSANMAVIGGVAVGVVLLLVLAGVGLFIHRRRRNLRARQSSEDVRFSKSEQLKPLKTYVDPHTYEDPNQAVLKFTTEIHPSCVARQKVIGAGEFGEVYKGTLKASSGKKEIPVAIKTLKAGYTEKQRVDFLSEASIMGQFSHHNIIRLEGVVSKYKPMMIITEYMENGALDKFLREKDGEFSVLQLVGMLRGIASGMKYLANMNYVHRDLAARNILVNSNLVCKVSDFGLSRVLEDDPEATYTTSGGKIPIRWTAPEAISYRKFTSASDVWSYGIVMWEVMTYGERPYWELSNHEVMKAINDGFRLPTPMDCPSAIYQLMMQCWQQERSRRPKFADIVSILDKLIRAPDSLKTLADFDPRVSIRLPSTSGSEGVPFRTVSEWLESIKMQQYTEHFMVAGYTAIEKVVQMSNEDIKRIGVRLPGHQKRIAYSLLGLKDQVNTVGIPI

**Q.** What does the source list for FTIKFQEFSPNLWGL [xEFN_RBD3]?
**A.** dendritic density (immunohistochemistry) [1]: increase dendritic density; phosphorylation of the EphA2 receptor (immunohistochemistry) [1]: reduced phosphorylation; number of collapsed growth cones [2]: significant decrease; phosphorylation of Ephexin-1 [3]: decrease; PERG amplitude over baseline recordings ([4]; 2 weeks post optic nerve injury): decline; visual response versus vehicle (PBS) treated animals ([4]; 4 week assessment): significantly better; RGC survival compared to vehicle treated controls ([4]; 4 weeks post injury): significant survival effect; visual function (PERG) at the 4 week assessment ([4]; 4 weeks post optic nerve injury): improved; expression of EphB2 (western blot) [5]: reduced expression; also recorded: effectively decreased expression; ARHGEF15 (Ephexin-5) level [6]: decrease

Source: US20250042968A1, “EPHRIN LIGAND MIMETIC PEPTIDES FOR THE TREATMENT OF NEURODEGENERATIVE DISEASES” (University of Miami, priority 2022, published 2025)
